Reference: article PMC4513954 (Journal of medicinal chemistry, 2015)
Where two headings read alike, the source gives them in different places.

What was measured:
[1] = test system: Bacillus anthracis; conditions: cited from earlier work
[2] = test system: Yersinia pestis; conditions: cited from earlier work
[3] = Toxicity against mammalian cells; type: cell-based
[4] = test system: undecaprenyl diphosphate synthase (UPPS); conditions: read-out: UPPS IC50; cited from earlier work
[5] = test system: S. aureus; conditions: S. aureus in vitro; cited from earlier work
[6] = test system: MRSA strain (S. aureus); conditions: cited from earlier work
[7] = biological target: undecaprenyl diphosphate synthase (UPPS); assay: UPPS inhibition; type: biochemical; conditions: read-out: UPPS IC50; both UPPS enzymes, approximate
[8] = test system: E. coli (K12); assay: E. coli cell growth inhibition; conditions: Escherichia coli, read-out: E. coli EC50, cell growth inhibition, E. coli K12

## c1cc2cc(-c3ccc(-c4cc5ccc(C6=NCCN6)cc5[nH]4)cc3)[nH]c2cc1C1=NCCN1 [Compound 7, 1,4-bis(6-(4,5-dihydro-1H-imidazol-2-yl)-1H-indol-2-yl)benzene]
[1]
  efficacy in mice model of infection: effective
[2]
  efficacy in mice model of infection: effective

## C(=C\c1cc2ccc(C3=NCCN3)cc2[nH]1)/c1cc2ccc(C3=NCCN3)cc2[nH]1.Cl [Compound 8]
[1]
  efficacy in mice model of infection: effective
[2]
  efficacy in mice model of infection: effective

## O=C(Nc1cccc(C2=NCCN2)c1)c1ccc(-c2ccc(C(=O)Nc3cccc(C4=NCCN4)c3)cc2)cc1 [Compound 1, N4,N4'-bis(3-(4,5-dihydro-1H-imidazol-2-yl)phenyl)-[1,1'-biphenyl]-4,4'-bicarboxamide]
[3]
  EC50: > 100 µM
[4]
  IC50: ~0.1 µM
[5]
  MIC: ~ 250 ng/mL
[6]; S. aureus mouse model of infection
  adverse side-effects: no adverse side-effects
[6]; i.p. infection model with a MRSA strain
  mice survived: 20/20

## O=C(Nc1cccc(C2=NCCCN2)c1)c1ccc(-c2ccc(C(=O)Nc3cccc(C4=NCCCN4)c3)cc2)cc1 [Compound 10, N4,N4'-bis(3-(1,4,5,6-tetrahydropyrimidin-2-yl)phenyl)biphenyl-4,4'-dicarboxamide]
[7]
  IC50: ~5 µM
[8]
  EC50: < 1 µM
